24 molecules from US10947215B2, “Heteroaryl compounds and their use as therapeutic drugs” (Dong-A Socio Holdings Co., Ltd., priority 2015, dated 2021) can be followed below.

In this experiment the test system is Ba/F3-CDM cells (Ba/F3 transfected with CD8-MerTK). Briefly: In cell MER kinase assay, Ba/F3-CDM cell proliferation without IL-3 (Celltiter-Glo, GI50). The format is cell-based, murine. The following applies: 48 hours, read-out: Cell growth inhibition (GI50). Here is the method: In Cell MER Kinase Assay Using BaF3 Cellular System
To establish an in cell kinase assay for MerTK kinase, the IL-3 dependent Ba/F3 cells of murine lymphoid origin was transfected with CD8-MerTK. […] For a routine cellular assay, Ba/F3-CDM cells were seeded at 2,000 cells per well in 384-well cell culture plate containing DMEM/10% FBS culture media and incubated for 24 hours before addition of compounds pre-diluted in culture media. Following compound treatment, cells were further incubated for 48 hours and the proliferation was measured. To discriminate a Ba/F3 growth inhibition by a specific inhibition of MerTK kinase following compound treatment vs growth inhibition due to a non-specific unintended cytotoxicity of compounds, we routinely carried out control sets of Ba/F3 cells in parallel that grown in IL3-supplemented growth media. In the presence of IL-3, the proliferation of Ba/F3 is no longer dependent on the MerTK activity. Cell growth and proliferation was measured with Celltiter-Glo™ system (Promega, USA) according to the manufacturer's instruction. The half-maximal growth inhibitory concentration (GI50) value was calculated with Prism6.0 software (GraphPad, USA).

Consider `Cc1cccc(C)c1CO[C@H]1CCC[C@@H]1NC(=O)c1cc(-c2cnn(C)c2)cnc1N` [Example 15, 2-amino-N-((1S,2S)-2-((2,6-dimethylbenzyl)oxy)cyclopentyl)-5-(1-methyl-1H-pyrazol-4-yl)nicotinamide], for which the 50% growth inhibitory concentration (GI50) is > 1000 nM.

`CCc1cc(CO[C@H]2CCC[C@@H]2NC(=O)c2cc(-c3cnn(C)c3)cnc2N)ccc1C` [Example 21]: the GI50 is > 1000 nM.

In the case of `CN(C)c1ccc(-c2ccc(CO[C@H]3CCC[C@@H]3NC(=O)c3cc(-c4cnn(C)c4)cnc3N)cc2)cc1` [Example 137, 2-amino-N-((1S,2S)-2-((4′-(dimethylamino)-[1,1′-biphenyl]-4-yl)methoxy)cyclopentyl)-5-(1-methyl-1H-pyrazol-4-yl)nicotinamide], the GI50 was < 100 nM.

For the molecule `Cn1cc(-c2cnc(N)c(C(=O)N[C@H]3CCC[C@@H]3OCc3ccc(-c4ccc(CCN)cc4)cc3)c2)cn1` [Example 145, 2-amino-N-((1S,2S)-2-((4′-(2-aminoethyl)-[1,1′-biphenyl]-4-yl)methoxy)cyclopentyl)-5-(1-methyl-1H-pyrazol-4-yl)nicotinamide], the GI50 is > 1000 nM.

With `CN1CCN(c2ccc(-c3ccc(CO[C@H]4CCC[C@@H]4NC(=O)c4cc(-c5cnn(C)c5)cnc4N)cc3)cc2)CC1` [Example 146, 2-amino-5-(1-methyl-1H-pyrazol-4-yl)-N-((1S,2S)-2-((4′-(4-methylpiperazin-1-yl)-[1,1′-biphenyl]-4-yl)methoxy)cyclopentyl)nicotinamide], the GI50 was < 100 nM.

Regarding `CN1CCN(c2ccc(-c3ccc(CO[C@H]4CCC[C@@H]4NC(=O)c4cc(-c5cnn(C)c5)cnc4N)cc3)cn2)CC1` [Example 148, 2-amino-5-(1-methyl-1H-pyrazol-4-yl)-N-((1S,2S)-2-((4-(6-(4-methylpiperazin-1-yl)pyridin-3-yl)benzyl)oxy)cyclopentyl)nicotinamide], the concentration for 50% growth inhibition (GI50) was > 1000 nM.

With `CN1CCN(Cc2ccc(-c3ccc(CO[C@H]4CCC[C@@H]4NC(=O)c4cc(-c5cnn(C)c5)cnc4N)c(F)c3)cc2)CC1` [Example 156, 2-amino-N-((1S,2S)-2-((3-fluoro-4′-((4-methylpiperazin-1-yl)-methyl)-[1,1′-biphenyl]-4-yl)methoxy)cyclopentyl)-5-(1-methyl-1H-pyrazol-4-yl)-nicotinamide], the GI50 was < 100 nM.

Turning to `CN1CCN(CCc2ccc(-c3ccc(CO[C@H]4CCC[C@@H]4NC(=O)c4cc(-c5cnn(C)c5)cnc4N)cc3)cc2)CC1` [Example 161, 2-amino-5-(1-methyl-1H-pyrazol-4-yl)-N-((1S,2S)-2-((4′-(2-(4-methylpiperazin-1-yl)ethyl)-[1,1′-biphenyl]-4-yl)methoxy)cyclopentyl)nicotinamide], the GI50 is < 100 nM.

Consider `Cn1cc(-c2cnc(N)c(C(=O)N[C@H]3CCC[C@@H]3OCc3ccc(-c4ccc(CN5CCC(O)CC5)cc4)cc3)c2)cn1` [Example 180, 2-amino-N-((1S,2S)-2-((4′-((4-hydroxypiperidin-1-yl)methyl)-[1,1′-biphenyl]-4-yl)methoxy)cyclopentyl)-5-(1-methyl-1H-pyrazol-4-yl)nicotinamide], for which the GI50 was > 1000 nM.

Turning to `Cn1cc(-c2cnc(N)c(C(=O)N[C@H]3CCC[C@@H]3OCc3ccc(-c4ccc(CN5CCN(CCO)CC5)cc4)cc3)c2)cn1` [Example 181, 2-amino-N-((1S,2S)-2-((4′-((4-(2-hydroxyethyl)piperazin-1-yl)-methyl)-[1,1′-biphenyl]-4-yl)methoxy)cyclopentyl)-5-(1-methyl-1H-pyrazol-4-yl)-nicotinamide], the 50% growth inhibitory concentration (GI50) is < 100 nM.

Turning to `Cn1cc(-c2cnc(N)c(C(=O)N[C@H]3CCC[C@@H]3OCc3ccc(-c4ccc(CN5CCN(CC(C)(C)O)CC5)cc4)cc3)c2)cn1` [Example 182, 2-amino-N-((1S,2S)-2-((4′-((4-(2-hydroxy-2-methylpropyl)-piperazin-1-yl)methyl)-[1,1′-biphenyl]-4-yl)methoxy)cyclopentyl)-5-(1-methyl-1H-pyrazol-4-yl)nicotinamide], the GI50 is < 100 nM.

In the case of `CCN1CCN(Cc2ccc(-c3ccc(CO[C@H]4CCC[C@@H]4NC(=O)c4cc(-c5cnn(C)c5)cnc4N)cc3)cc2)CC1` [Example 183, 2-amino-N-((1S,2S)-2-((4′-((4-ethylpiperazin-1-yl)methyl)-[1,1′-biphenyl]-4-yl)methoxy)cyclopentyl)-5-(1-methyl-1H-pyrazol-4-yl)nicotinamide], the GI50 was < 100 nM.

With `Cn1cc(-c2cnc(N)c(C(=O)N[C@H]3CCC[C@@H]3OCc3ccc(-c4ccc(CN5CCN(C6CC6)CC5)cc4)cc3)c2)cn1` [Example 184, 2-amino-N-((1S,2S)-2-((4′-((4-cyclopropylpiperazin-1-yl)methyl)-[1,1′-biphenyl]-4-yl)methoxy)cyclopentyl)-5-(1-methyl-1H-pyrazol-4-yl)nicotinamide], the GI50 was < 100 nM.

On to `C[C@@H]1CN(Cc2ccc(-c3ccc(CO[C@H]4CCC[C@@H]4NC(=O)c4cc(-c5cnn(C)c5)cnc4N)cc3)cc2)CCN1C` [Example 186, 2-amino-N-((1S,2S)-2-((4′-(((R)-3,4-dimethylpiperazin-1-yl)-methyl)-[1,1′-biphenyl]-4-yl)methoxy)cyclopentyl)-5-(1-methyl-1H-pyrazol-4-yl)-nicotinamide], for which the GI50 was < 100 nM.

Regarding `C[C@@H]1CN(C)CCN1Cc1ccc(-c2ccc(CO[C@H]3CCC[C@@H]3NC(=O)c3cc(-c4cnn(C)c4)cnc3N)cc2)cc1` [Example 187, 2-amino-N-((1S,2S)-2-((4′-(((R)-2,4-dimethylpiperazin-1-yl)-methyl)-[1,1′-biphenyl]-4-yl)methoxy)cyclopentyl)-5-(1-methyl-1H-pyrazol-4-yl)-nicotinamide], the GI50 was < 100 nM.

`CCC1CN(Cc2ccc(-c3ccc(CO[C@H]4CCC[C@@H]4NC(=O)c4cc(-c5cnn(C)c5)cnc4N)cc3)cc2)CCN1C` (stereo partly drawn) [Example 188, 2-amino-N-((1S,2S)-2-((4′-((3-ethyl-4-methylpiperazin-1-yl)-methyl)-[1,1′-biphenyl]-4-yl)methoxy)cyclopentyl)-5-(1-methyl-1H-pyrazol-4-yl)-nicotinamide]: the GI50 was < 100 nM.

As to `C[C@@H]1CN(Cc2ccc(-c3ccc(CO[C@H]4CCC[C@@H]4NC(=O)c4cc(-c5cnn(C)c5)cnc4N)cc3)cc2)C[C@H](C)N1` [Example 189, 2-amino-N-((1S,2S)-2-((4′-((cis-3,5-dimethylpiperazin-1-vi)-methyl)-[1,1′-biphenyl]-4-yl)methoxy)cyclopentyl)-5-(1-methyl-1H-pyrazol-4-yl)-nicotinamide], the GI50 lay in the range of 100 to 500 nM.

As for `CC1CN[C@@H](C)CN1Cc1ccc(-c2ccc(CO[C@H]3CCC[C@@H]3NC(=O)c3cc(-c4cnn(C)c4)cnc3N)cc2)cc1` (stereo partly drawn) [Example 191, 2-amino-N-((1S,2S)-2-((4′-((trans-2,5-dimethylpiperazin-1-yl)methyl)-[1,1′-biphenyl]-4-yl)methoxy)cyclopentyl)-5-(1-methyl-1H-pyrazol-4-yl)nicotinamide], the GI50 lay within 100 to 500 nM.

For the molecule `CN(C)C1CCN(Cc2ccc(-c3ccc(CO[C@H]4CCC[C@@H]4NC(=O)c4cc(-c5cnn(C)c5)cnc4N)cc3)cc2)C1` (stereo partly drawn) [Example 193, 2-amino-N-((1S,2S)-2-((4′-((3-(dimethylamino)pyrrolidin-1-yl)methyl)-[1,1′-biphenyl]-4-yl)methoxy)cyclopentyl)-5-(1-methyl-1H-pyrazol-4-yl)nicotinamide], the GI50 was < 100 nM.

As to `CN1CCN(Cc2ccc(-c3ccc(CO[C@H]4CCC[C@@H]4NC(=O)c4nc(-c5cnn(C)c5)cnc4N)cc3)cc2)CC1` [Example 194, 3-amino-6-(1-methyl-1H-pyrazol-4-yl)-N-((1S,2S)-2-((4′-((4-methylpiperazin-1-yl)methyl)-[1,1′-biphenyl]-4-yl)methoxy)cyclopentyl)pyrazine-2-carboxamide], the GI50 is < 100 nM.

As to `CN1CCN(Cc2ccc(-c3ccc(CO[C@H]4CCC[C@@H]4NC(=O)c4cc(-c5cnn(C)c5)cnc4N)cc3)cc2F)CC1` [Example 195, 2-amino-N-((1S,2S)-2-((3′-fluoro-4′-((4-methylpiperazin-1-yl)-methyl)-[1,1′-biphenyl]-4-yl)methoxy)cyclopentyl)-5-(1-methyl-1H-pyrazol-4-yl)-nicotinamide], the concentration for 50% growth inhibition (GI50) is < 100 nM.

Consider `CN1CCN(Cc2ccc(-c3ccc(CO[C@H]4CCC[C@@H]4NC(=O)c4cc(-c5cnn(C)c5)cnc4N)cc3)cc2C(F)(F)F)CC1` [Example 197, 2-amino-5-(1-methyl-1H-pyrazol-4-yl)-N-((1S,2S)-2-((4′-((4-methylpiperazin-1-yl)methyl)-3′-(trifluoromethyl)-[1,1′-biphenyl]-4-yl)methoxy)-cyclopentyl)nicotinamide], for which the GI50 is < 100 nM.

For the molecule `Cc1cc(-c2ccc(CO[C@H]3CCC[C@@H]3NC(=O)c3cc(-c4cnn(C)c4)cnc3N)cc2)ccc1CN1CCN(C)CC1` [Example 198, 2-amino-5-(1-methyl-1H-pyrazol-4-yl)-N-((1S,2S)-2-((3′-methyl-4′-((4-methylpiperazin-1-yl)methyl)-[1,1′-biphenyl]-4-yl)methoxy)cyclopentyl)-nicotinamide], the GI50 was < 100 nM.

For `CN1CCN(Cc2ccc(-c3ccc(CO[C@H]4CCC[C@@H]4NC(=O)c4cc(-c5cnn(C)c5)cnc4N)cc3)cc2O)CC1` [Example 199, 2-amino-N-((1S,2S)-2-((3′-hydroxy-4′-((4-methylpiperazin-1-yl)methyl)-[1,1′-biphenyl]-4-yl)methoxy)cyclopentyl)-5-(1-methyl-1H-pyrazol-4-yl)nicotinamide], the GI50 is < 100 nM.

One may read the GI50 as the concentration that inhibits growth by half.
